How the values were obtained:
Type in all cases: functional
SF-268 = assay: Cytotoxicity against Homo sapiens (human) SF268 cells after 48 hr by sulforhodamine B assay; settings: SF-268, 48 h
K562 = assay: Cytotoxicity against Homo sapiens (human) K562 cells after 48 hr by sulforhodamine B assay; settings: K562, 48 h
UACC-257 = assay: Cytotoxicity against Homo sapiens (human) UACC257 cells after 48 hr by sulforhodamine B assay; settings: UACC-257, 48 h
NCI-H460 [1] = assay: Cytotoxicity against Homo sapiens (human) NCI-H460 cells assessed as cell growth at 10^-4 M after 48 hr by Alamar blue assay; settings: NCI-H460, 48 h, read-out: Activity
M14 = assay: Cytotoxicity against Homo sapiens (human) M14 cells after 48 hr by sulforhodamine B assay; settings: M14, 48 h
MCF7 [2] = assay: Cytotoxicity against Homo sapiens (human) MCF7 cells after 48 hr by sulforhodamine B assay; settings: MCF7, 48 h
COLO 205 = assay: Cytotoxicity against Homo sapiens (human) COLO205 cells after 48 hr by sulforhodamine B assay; settings: COLO 205, 48 h
NCI-H522 = assay: Cytotoxicity against Homo sapiens (human) NCI-H522 cells after 48 hr by sulforhodamine B assay; settings: NCI-H522, 48 h
CAKI-1 = assay: Cytotoxicity against Homo sapiens (human) Caki1 cells after 48 hr by sulforhodamine B assay; settings: CAKI-1, 48 h
SK-MEL-28 = assay: Cytotoxicity against Homo sapiens (human) SK-MEL-28 cells after 48 hr by sulforhodamine B assay; settings: SK-MEL-28, 48 h
OVCAR-5 = assay: Cytotoxicity against Homo sapiens (human) OVCAR5 cells after 48 hr by sulforhodamine B assay; settings: OVCAR-5, 48 h
TK-10 = assay: Cytotoxicity against Homo sapiens (human) TK10 cells after 48 hr by sulforhodamine B assay; settings: TK-10, 48 h
MCF7 [3] = assay: Cytotoxicity against Homo sapiens (human) MCF7 cells assessed as cell growth at 10^-4 M after 48 hr by Alamar blue assay; settings: MCF7, 48 h, read-out: Activity
OVCAR-8 = assay: Cytotoxicity against Homo sapiens (human) OVCAR8 cells after 48 hr by sulforhodamine B assay; settings: OVCAR-8, 48 h
NCI-H460 [4] = assay: Cytotoxicity against Homo sapiens (human) NCI-H460 cells after 48 hr by sulforhodamine B assay; settings: NCI-H460, 48 h
Hs-578T = assay: Cytotoxicity against Homo sapiens (human) Hs 578T cells after 48 hr by sulforhodamine B assay
HOP-92 = assay: Cytotoxicity against Homo sapiens (human) HOP92 cells after 48 hr by sulforhodamine B assay; settings: HOP-92, 48 h
NCI-H226 = assay: Cytotoxicity against Homo sapiens (human) NCI-H226 cells after 48 hr by sulforhodamine B assay; settings: NCI-H226, 48 h
NCI-H23 = assay: Cytotoxicity against Homo sapiens (human) NCI-H23 cells after 48 hr by sulforhodamine B assay; settings: NCI-H23, 48 h
BT-549 = assay: Cytotoxicity against Homo sapiens (human) BT549 cells after 48 hr by sulforhodamine B assay; settings: BT-549, 48 h
U-251 = assay: Cytotoxicity against Homo sapiens (human) U251 cells after 48 hr by sulforhodamine B assay; settings: U-251, 48 h
[5] = Cytotoxicity against Homo sapiens (human) NCI-ADR-RES cells after 48 hr by sulforhodamine B assay
MDA-MB-435 = assay: Cytotoxicity against Homo sapiens (human) MDA-MB-435 cells after 48 hr by sulforhodamine B assay; settings: MDA-MB-435, 48 h
SN12C = assay: Cytotoxicity against Homo sapiens (human) SN12C cells after 48 hr by sulforhodamine B assay
SNB-19 = assay: Cytotoxicity against Homo sapiens (human) SNB19 cells after 48 hr by sulforhodamine B assay; settings: SNB-19, 48 h
[6] = read-out: LC50 (the source's name)

In the case of ClCc1ccc(Cn2cnc3c(Cl)ncnc32)cc1, the GI50 (SF-268) is reported as 0.64 µM, the TGI (SF-268) is reported as 2.88 µM and the CC50 (SF-268; [6]) is reported as 9.33 µM. For the same compound, the GI50 (K562) was 2.91 µM, the TGI (K562) was greater than 100 µM and the CC50 (K562; [6]) was greater than 100 µM. For the same compound, the GI50 (UACC-257) was 7.41 µM, the LC50 (concentration killing 50% of cells) (UACC-257) was 97.7 µM and the TGI (UACC-257) was 28.8 µM. For the same compound, the growth at 100 µM (NCI-H460 [1]) was 0%, the GI50 (M14) was 1.28 µM and the LC50 (M14) was 9.12 µM. The TGI (M14) was 3.46 µM, the GI50 (MCF7 [2]) was 0.41 µM and the LC50 (concentration killing 50% of cells) (MCF7 [2]) was greater than 100 µM. It also gave a TGI (MCF7 [2]) of 77.6 µM, a GI50 (COLO 205) of 2.23 µM and a TGI (COLO 205) greater than 100 µM. For the same compound, the CC50 (COLO 205; [6]) was greater than 100 µM, the GI50 (NCI-H522) was 3.54 µM and the TGI (NCI-H522) was greater than 100 µM. It also gave a CC50 (NCI-H522; [6]) greater than 100 µM, a GI50 (CAKI-1) of 0.26 µM and a TGI (CAKI-1) of 0.64 µM. It also gave a CC50 (CAKI-1; [6]) of 2.39 µM, a GI50 (SK-MEL-28) of 7.94 µM and an LC50 (concentration killing 50% of cells) (SK-MEL-28) greater than 100 µM. The TGI (SK-MEL-28) was 30.9 µM, the GI50 (OVCAR-5) was 2.95 µM and the TGI (OVCAR-5) was 9.23 µM. The CC50 (OVCAR-5; [6]) was 34.7 µM, the GI50 (TK-10) was 1.09 µM and the TGI (TK-10) was 4.67 µM. For the same compound, the CC50 (TK-10; [6]) was 22.9 µM, the growth at 100 µM (MCF7 [3]) was 7% and the GI50 (OVCAR-8) was 3.02 µM. For the same compound, the LC50 (concentration killing 50% of cells) (OVCAR-8) was 64.6 µM, the TGI (OVCAR-8) was 15.1 µM and the GI50 (NCI-H460 [4]) was 0.05 µM. For the same compound, the TGI (NCI-H460 [4]) was 1.82 µM, the CC50 (NCI-H460 [4]; [6]) was 26.9 µM and the GI50 (Hs-578T) was 10.2 µM. It also gave an LC50 (Hs-578T) greater than 100 µM, a TGI (Hs-578T) of 38.9 µM and a GI50 (HOP-92) of 6.02 µM. For the same compound, the TGI (HOP-92) was 66.1 µM, the CC50 (HOP-92; [6]) was greater than 100 µM and the GI50 (NCI-H226) was 1.58 µM. For the same compound, the TGI (NCI-H226) was 7.41 µM, the CC50 (NCI-H226; [6]) was 49 µM and the GI50 (NCI-H23) was 0.66 µM. For the same compound, the TGI (NCI-H23) was 2.45 µM, the CC50 (NCI-H23; [6]) was 7.76 µM and the GI50 (BT-549) was 5.62 µM. For the same compound, the LC50 (50% lethal concentration) (BT-549) was 57.5 µM, the TGI (BT-549) was 21.4 µM and the GI50 (U-251) was 1.25 µM. For the same compound, the LC50 (concentration killing 50% of cells) (U-251) was 7.41 µM, the TGI (U-251) was 3.01 µM and the GI50 [5] was 1.51 µM. It also gave an LC50 (concentration killing 50% of cells) [5] of 38.9 µM, a TGI [5] of 5.49 µM and a GI50 (MDA-MB-435) of 1.62 µM. For the same compound, the LC50 (MDA-MB-435) was 15.8 µM, the TGI (MDA-MB-435) was 4.36 µM and the GI50 (SN12C) was 1.02 µM. The LC50 (50% lethal concentration) (SN12C) was 5.37 µM, the TGI (SN12C) was 2.34 µM and the GI50 (SNB-19) was 3.63 µM. The LC50 (SNB-19) was 89.1 µM and the TGI (SNB-19) was 21.9 µM.

Source: ChEMBL document CHEMBL3044672, “N9- and N7-(Chloromethyl Phenymethyl)Chloropurine Derivatives from , '-Dichloroxylenes: Synthesis and Anticancer Activity” (2005)
